From the SangsterLogP compilation

Experiment: method code SF-AS, from DOI: 10.2298/jsc0810967p
Settings: pH 7.4

Compound	logD
COc1cccc(Cn2cnc3cc(C)c(C)cc32)c1	4.28
Cc1cc2ncn(Cc3cccc(F)c3)c2cc1C	4.5
Cc1cc2ncn(Cc3cccc(Cl)c3)c2cc1C	5.05
Cc1cccc(Cn2cnc3cc(C)c(C)cc32)c1	4.85
